For one test, the target named is human 5-HT7a receptor (Homo sapiens (Human), UniProt P34969). Put plainly: Radioligand binding competition, filtration binding assay, 5-HT7a. Conditions: affinity on 5-HT7 receptor, table of new compounds. As to the method: (§1) FIG. 14: Testing of 8 molecules for radioligand binding competition activity on recombinant human 5-HT1A, 5-HT2A, 5-HT2Cedited, 5-HT6, 5-HT7 and D2(long) receptors using filtration binding assays.
(§2) Radioligand Binding experiments were conducted with Epics Therapeutics membrane preparations. Receptor accession numbers, cellular background and reference compounds are shown in this table.
Reference values thus obtained for the test were compared to historical values obtained from the same receptor and used to validate the experimental session. For replicate determinations, the maximum variability tolerated in the test was of +/−20% around the average of the replicates.
(§3) Dose-response data from test compounds were analyzed with XLfit (IDBS) software using nonlinear regression applied to a sigmoidal dose-response model and the following equation: • XL Fit fit Model 203: 4 Parameter Logistic Model • A: Bottom • B: TOP • C: LogEC50 • D: Hill

In another test the target is human 5-HT1A receptor (Homo sapiens (Human), UniProt P08908). Put plainly: Radioligand binding competition, 5-HT1A. Conditions: selectivity panel; for IC50: read-out: RLB 5-HT1A IC50; for Ki: read-out: RLB 5-HT1A Ki. As to the method:
as §1, §2
(§4) The new compounds have been tested by radioligand binding competition activity at the human 5-HT1A (FAST-0500B), 5-HT2A (FAST-0505B), 5-HT2Cedited (FAST-0507B), 5-HT6 (FAST-0509B), 5-HT7a (FAST-05111B) and D2(long) (FAST-0101B) receptors at seven (7) concentrations, in duplicate. […] Reference values thus obtained for the test were compared to historical values obtained from the same receptor and used to validate the experimental session. For replicate determinations, the maximum variability tolerated in the test was of +/−20% around the average of the replicates.
as §3

In another test the target is human 5-HT2A receptor (Homo sapiens (Human), UniProt P28223). Kind of test: Radioligand binding competition, 5-HT2A. Conditions: selectivity panel; for IC50: read-out: RLB 5-HT2A IC50; for Ki: read-out: RLB 5-HT2A Ki. As to the method: as §1, §2, §4, §3
Sequence of human 5-HT2A receptor (P28223 whole entry): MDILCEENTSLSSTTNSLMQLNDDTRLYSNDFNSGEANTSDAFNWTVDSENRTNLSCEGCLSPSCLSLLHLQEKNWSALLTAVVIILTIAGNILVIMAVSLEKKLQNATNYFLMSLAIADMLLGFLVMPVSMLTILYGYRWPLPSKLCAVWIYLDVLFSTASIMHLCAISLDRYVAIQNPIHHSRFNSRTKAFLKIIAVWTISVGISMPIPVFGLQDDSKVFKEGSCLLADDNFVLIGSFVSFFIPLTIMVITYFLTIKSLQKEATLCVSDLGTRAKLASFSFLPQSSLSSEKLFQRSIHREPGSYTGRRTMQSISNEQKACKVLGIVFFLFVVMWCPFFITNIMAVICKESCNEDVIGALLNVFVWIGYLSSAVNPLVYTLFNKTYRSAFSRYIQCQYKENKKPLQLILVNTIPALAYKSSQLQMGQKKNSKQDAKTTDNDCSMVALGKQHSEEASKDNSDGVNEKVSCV
The target of test [1] is human 5-HT2Cedited receptor (Homo sapiens, UniProt P28335). Put plainly: Radioligand binding competition, 5-HT2Cedited. How it is done: as §1, §2, §4, §3
Sequence of human 5-HT2Cedited receptor (P28335 33-458 limits assumed): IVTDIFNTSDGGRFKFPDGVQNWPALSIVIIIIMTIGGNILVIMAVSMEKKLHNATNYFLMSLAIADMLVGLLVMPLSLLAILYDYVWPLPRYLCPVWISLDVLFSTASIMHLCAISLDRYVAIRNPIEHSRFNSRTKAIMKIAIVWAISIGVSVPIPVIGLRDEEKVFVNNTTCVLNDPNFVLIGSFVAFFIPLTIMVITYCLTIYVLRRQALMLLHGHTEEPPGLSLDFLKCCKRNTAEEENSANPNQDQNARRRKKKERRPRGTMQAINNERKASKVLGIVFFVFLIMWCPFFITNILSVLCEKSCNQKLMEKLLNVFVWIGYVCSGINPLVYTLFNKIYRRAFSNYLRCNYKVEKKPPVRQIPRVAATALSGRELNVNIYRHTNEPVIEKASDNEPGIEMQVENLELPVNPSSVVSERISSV
A further test has as its system mice. Kind of test: Tail immersion test (50° C.). In kind it is in vivo. Conditions: administrated alone, i.p. How it is done:
(A) Experimental protocol summary used. (B) Mice were subcutaneously injected with two different doses of the 5-HT7 receptor agonist Serodolin, 1 mg/kg or 5 mg/kg and 10 min later their tail extremity was immersed in water heated to 50 degrees. […] The effect of injections (Serodolin or E55888) was evaluated at TO, 30 min and 60 min corresponding to 10, 40 and 70 min after compound injections. […] Their tail extremity was immersed in water heated to 50 degrees at TO (E) or 30 min later (F) corresponding to 10 and 40 min after agonist injections. […] Statistical analysis was done using Tukey's multiple comparison test.
Tail immersion test. Nociception was assessed with the tail immersion test, 10 min and 40 min after E55888 (5 mg/kg) or Serodolin (5 mg/kg) tail subcutaneous injections, in the water heated to 50° C. Vehicle (20% DMSO, 5% Tween 80 diluted in PBS solution) was used as a control group. These different groups were intraperitoneally injected (+) or not (−) with the 5-HT7R antagonist SB269960 (5 mg/kg) 10 min before the ligand injection. The tail withdrawal latency (s) was measured for each animal.

Read-outs that look alike come from different tables or passages of the source.

Sequence of human 5-HT7a receptor (P34969 other isoform, or with tags, fused parts or gaps): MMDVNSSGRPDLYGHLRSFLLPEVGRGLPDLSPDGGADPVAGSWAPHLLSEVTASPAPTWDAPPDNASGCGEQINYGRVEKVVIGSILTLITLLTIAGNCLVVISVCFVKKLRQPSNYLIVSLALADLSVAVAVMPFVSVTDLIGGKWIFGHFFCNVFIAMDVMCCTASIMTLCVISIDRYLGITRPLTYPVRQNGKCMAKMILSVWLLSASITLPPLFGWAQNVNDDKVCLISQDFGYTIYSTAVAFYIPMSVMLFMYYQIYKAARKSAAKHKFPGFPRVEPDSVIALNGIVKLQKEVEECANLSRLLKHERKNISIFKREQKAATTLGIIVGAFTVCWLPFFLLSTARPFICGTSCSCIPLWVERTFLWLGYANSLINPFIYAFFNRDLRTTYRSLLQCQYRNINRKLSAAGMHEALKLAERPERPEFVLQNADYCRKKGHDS
Sequence of human 5-HT1A receptor (P08908 whole entry): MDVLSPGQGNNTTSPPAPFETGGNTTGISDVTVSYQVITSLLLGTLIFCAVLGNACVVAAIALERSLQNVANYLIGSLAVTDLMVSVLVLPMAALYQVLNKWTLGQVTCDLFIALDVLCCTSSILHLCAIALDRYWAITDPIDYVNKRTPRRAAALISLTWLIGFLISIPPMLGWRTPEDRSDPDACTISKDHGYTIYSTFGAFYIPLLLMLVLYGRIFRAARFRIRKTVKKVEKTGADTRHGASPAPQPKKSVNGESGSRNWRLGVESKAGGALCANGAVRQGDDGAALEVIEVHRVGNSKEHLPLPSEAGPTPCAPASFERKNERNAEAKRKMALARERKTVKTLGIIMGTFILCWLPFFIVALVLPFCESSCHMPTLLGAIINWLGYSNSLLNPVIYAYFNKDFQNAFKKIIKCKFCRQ

As to `O=c1[nH]c2ccccc2n1CCCCCN1CCN(c2ccccc2O)CC1` [JLB010], on human 5-HT7a receptor, the IC50 was found to be 7.99 nM and the Ki came to 5.61 nM.
Consider `O=c1[nH]c2ccccc2n1CN1CCN(c2ccccc2C(F)(F)F)CC1` [JLB011], for which, at human 5-HT7a receptor, the IC50 was 4.74 nM and the affinity, expressed as Ki, was 3.33 nM.
For `O=c1[nH]c2ccccc2n1CCCCCN1CCN(c2ccccn2)CC1` [JLB012], the IC50 on human 5-HT7a receptor stood at 1.69 nM; on human 5-HT1A receptor, 41.3 nM; on human 5-HT2A receptor, 44.2 nM; in test [1] (read-out: RLB 5-HT2Cedited IC50; selectivity panel), 5250 nM. Moreover, the Ki at human 5-HT7a receptor came out at 1.18 nM; on human 5-HT1A receptor, 20.7 nM; on human 5-HT2A receptor it was 7.3 nM; in test [1] (read-out: RLB 5-HT2Cedited Ki; selectivity panel), 863 nM.
On human 5-HT7a receptor, `O=c1[nH]c2ccccc2n1CCCCCN1CCN(c2ncccn2)CC1` [JLB013] showed a 50% inhibitory concentration (IC50) of 9.68 nM and a Ki of 6.8 nM.
In the same order, the values of `O=c1[nH]c2ccccc2n1CCCCCN1CCN(c2ccccc2F)CC1` [JLB014] are 3.29 nM and 2.31 nM.
At human 5-HT7a receptor, `O=c1[nH]c2ccccc2n1CCCCCN1CCN(c2ccc(F)cc2)CC1` [JLB015] returned an IC50 of 4.39 nM and a Ki of 3.09 nM.
For `O=c1[nH]c2ccccc2n1CCCCCN1CCN(c2ccc(C(F)(F)F)cc2)CC1` [JLB017], on human 5-HT7a receptor, the IC50 was found to be 7.19 nM and the Ki turned out to be 5.05 nM.
`O=c1[nH]c2ccccc2n1CCCCCN1CCN(c2ccncc2)CC1` [JLB020]: on human 5-HT7a receptor, the IC50 stood at 260 nM and the Ki turned out to be 182 nM.
Take `O=c1[nH]c2ccccc2n1CCCCCN1CCN(c2ccncn2)CC1` [JLB022]: at human 5-HT7a receptor, the IC50 is 136 nM and the Ki is 95.5 nM.
In the same order, the values of `O=c1[nH]c2ccccc2n1CCCCCN1CCN(c2ncncn2)CC1` [JLB023] are 370 nM and 260 nM.
At human 5-HT7a receptor, `O=c1[nH]c2ccccc2n1CCOCCN1CCN(c2ccc(F)cc2)CC1` [JLB048] came in with an IC50 of 19.1 nM and a Ki of 13.4 nM.
At human 5-HT7a receptor, `O=c1[nH]c2ccccc2n1CCCCCN1C[C@@H]2CN(c3ccc(F)cc3)C[C@@H]2C1` [JLB061] yielded an IC50 of 5.97 nM and a Ki of 4.19 nM.
At human 5-HT7a receptor, `O=c1[nH]c2ccccc2n1CCCCCN1CC2(C1)CN(c1ccc(F)cc1)C2` [JLB088, 1-(5-(6-(4-fluorophenyl)-2,6-diazaspiro[3.3]heptan-2-yl)pentyl)-1H-benzo[d]imidazol-2(3H)-one] yielded an IC50 of 174 nM and a Ki of 122 nM.
For the molecule `CC(C)(CCN1CCN(c2ccc(F)cc2)CC1)CCn1c(=O)[nH]c2ccccc21` [JLB094], the IC50 is 2.7 nM on human 5-HT7a receptor, 167 nM at human 5-HT1A receptor, 6.23 nM at human 5-HT2A receptor and 1100 nM in test [1] (selectivity panel; read-out: RLB 5-HT2Cedited IC50). In addition, the Ki at human 5-HT7a receptor came out at 1.9 nM; at human 5-HT1A receptor it was 83.6 nM; on human 5-HT2A receptor, 1.02 nM; in test [1] (selectivity panel; read-out: RLB 5-HT2Cedited Ki) it was 181 nM.
At human 5-HT7a receptor, `O=c1[nH]ccn1CCCCCN1CCN(c2ccc(F)cc2)CC1` [JLB102, 1-(5-(4-(4-fluorophenyl)piperazin-1-yl)pentyl)-1H-imidazol-2(3H)-one] yielded an IC50 of 17 nM and a Ki of 11.9 nM.
On human 5-HT7a receptor, `O=c1[nH]c2ccccc2n1CCCCCN1CCCN(c2ccccn2)CC1` [JLB118, 1-(5-(4-(pyridin-2-yl)-1,4-diazepan-1-yl)pentyl)-1H-benzo[d]imidazol-2(3H)-one] showed an IC50 of 69.7 nM and a Ki of 48.9 nM.
On human 5-HT7a receptor, `Cc1ccc(N2CCCN(CCCCCn3c(=O)[nH]c4ccccc43)CC2)cc1` [JLB119, 1-(5-(4-(p-tolyl)-1,4-diazepan-1-yl)pentyl)-1H-benzo[d]imidazol-2(3H)-one] showed an IC50 of 24.2 nM and an inhibition constant (Ki) of 17 nM.
At human 5-HT7a receptor, `Cc1ccc(N2CC3(CN(CCCCCn4c(=O)[nH]c5ccccc54)C3)C2)cc1` [JLB137, 1-(5-(6-(p-tolyl)-2,6-diazaspiro[3.3]heptan-2-yl)pentyl)-1H-benzo[d]imidazol-2(3H)-one] displayed an IC50 of 687 nM and a Ki of 482 nM.
On human 5-HT7a receptor, `O=c1[nH]c2ccccc2n1CCCCCN1CC2(C1)CN(c1ccccn1)C2` [JLB138, 1-(5-(6-(pyridin-2-yl)-2,6-diazaspiro[3.3]heptan-2-yl)pentyl)-1H-benzo[d]imidazol-2(3H)-one] had an IC50 of 5070 nM and a Ki of 3560 nM.
In the same order, the values of `O=c1[nH]c2ccccc2n1CCCCCN1CCN(c2ccc(O)cc2)CC1` [MOA43] are 1.95 nM and 1.37 nM.
As for `CC1CCN(CC[C@H]2CCCN2S(=O)(=O)c2cccc(O)c2)CC1` [SB269970, reference compound], the “acute thermal nociception, antagonist administrated alone” value with mice is reported as “did not exert any significant effect on acute thermal nociception”.

(Values after patent US20240199555A1, “APPLICATIONS OF BIASED LIGANDS OF THE SEROTONIN 5-HT7 RECEPTOR FOR THE TREATMENT OF PAIN, MULTIPLE SCLEROSIS AND THE CONTROL OF THERMOREGULATION” (Centre National de la Recherche Scientifique, priority 2021, published 2024).)
